Assay results published in US20240190831A1, “TRANSTHYRETIN STABILIZING COMPOUNDS” (Protego Biopharma, Inc., priority 2021, published 2024).

Columns and labels:
[1] = In vivo rat PK (CSF/plasma and brain/plasma ratio of tafamidis); conditions: for Tafamidis CSF/plasma Ratio over 24 hrs (po): oral dosing of test compound
Description: For a compound provided herein to be an effective TTR stabilizer drug to halt and/or prevent the ocular and cerebral TTR amyloid deposition TTR amyloidosis, it has to be able to penetrate into the brain and CSF (surrogate for eye penetration) and deliver a sufficient amount of TTR stabilizer to stop TTR dissociation. A pharmacokinetic study in rat was used to evaluate the compounds. Male Sprague-Dawley (SD) rats (200-220 g weight) were acclimated for at least 2 to 3 days before being placed on study. All animals had access to certified rodent diet and water at libitum. Appropriate amount of the test compound was accurately weighed and mixed with appropriate volume of vehicle (such as DMSO/sterile water for iv dosing or 0.5% methylcellulose homogenous suspension or solution for oral administration or as a solution in a mixture NMP/PEG400/solutol/water) to administer a dose of 2, 5 or 10 mg/kg. For IV dosing the test compound was administered via tail vein or indwelling cannula. For oral dosing, the test compound was administered by oral gavage. Blood and CSF samples were collected at selected timepoints. Blood collection was performed from saphenous vein or tail vein of each animal into polypropylene tubes at each timepoint. All blood samples were transferred into EDTA-K2 tubes and centrifuged for 15 minutes at 4° C. for plasma collection. Plasma samples were kept at −80° C. until LC/MSMS analysis. CSF was collected from cisterna magna at each timepoint and quick frozen over dry ice and kept at −80° C. until LC/MSMS analysis. Brains were harvested immediately after the terminal bleeding (˜24 hrs post dosing). The blood of the brain was perfused with normal saline. The brain was quickly picked and placed into centrifuge tube. The weight of brain samples was recorded. 4-Fold homogenization solution (MeOH/15 mM PBS (1:2)) was added into the tube according to the weighed samples. The brain was homogenized using a Polytron (3 strokes or more until homogenous, each 30 seconds) on wet ice. The samples were quick frozen over dry ice and kept at −80° C. until LC/MSMS analysis. Using a LC-MSMS method for the quantitative determination of test compound in biological matrixes, amount of test compound and active agent were measured in plasma and CSF at selected timepoints post-dosing and in brain at 24 hrs post dosing. Plasma concentration versus time data was analyzed by non-compartmental approaches using the Phoenix WinNonlin 6.3 software program. As reference, an oral dose of 2 mg/kg of tafamidis gave a CSF to plasma ratio over 24 hrs around 0.01 and a brain to plasma ratio at 24 hrs around 0.02.
Results from rat PK (CSF/plasma ratio and brain/plasma ratio at 24 hrs) are shown in Table 4B and Table 4C, respectively.

[2] = In vitro rat liver S9 stability assay (formation of tafamidis); assay type: in vitro ADME; conditions: rat liver S9, 1 μM test compound, 37° C.
Procedure, shortened: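 Test compound at 1 μM was incubated with rat liver S9 at 37° C. Samples taken at 0, 5, 10, 20, 30 and 60 min were protein-precipitated and analysed by LC-MS/MS. Percentage formation of the active agent was calculated at each time point.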

[3] = tafamidis-treated FAP patients; cited from earlier work

| Structure (SMILES) | Formation of tafamidis at 60 min [2] | also measured |
| --- | --- | --- |
| CC1(O)CN(C(=O)c2ccc3nc(-c4cc(Cl)cc(Cl)c4)oc3c2)C1 [Compound 101] | A (A is <25%) | Tafamidis CSF/plasma Ratio over 24 hrs (po) [1]: B (B is ≥0.015 to <0.02) |
| O=C(c1ccc2nc(-c3cc(Cl)cc(Cl)c3)oc2c1)N1CCCC(O)C1 (centres unmarked) [Compound 83] | A (A is <25%) | Tafamidis CSF/plasma Ratio over 24 hrs (po) [1]: A (A is <0.015) |
| O=C(c1ccc2nc(-c3cc(Cl)cc(Cl)c3)oc2c1)N1CC(O)C1 [Compound 93] | A (A is <25%) | Tafamidis CSF/plasma Ratio over 24 hrs (po) [1]: A (A is <0.015) |
| CN(C)CCNC(=O)c1ccc2nc(-c3cc(Cl)cc(Cl)c3)oc2c1 [Compound 7, 2-(3,5-dichlorophenyl)-N-(2-(dimethylamino)ethyl)benzo[d]oxazole-6-carboxamide] | A (A is <25%) | Tafamidis CSF/plasma Ratio over 24 hrs (po) [1]: C (C is ≥0.02) |
| CC(Cc1ncc[nH]1)OC(=O)c1ccc2nc(-c3cc(Cl)cc(Cl)c3)oc2c1 (centres unmarked) [Compound 34, 1-(1H-imidazol-2-yl)propan-2-yl 2-(3,5-dichlorophenyl)benzo-[d]oxazole-6-carboxylate] | A (A is <25%) | Tafamidis CSF/plasma Ratio over 24 hrs (po) [1]: B (B is ≥0.015 to <0.02) |
| O=C(c1ccc2nc(-c3cc(Cl)cc(Cl)c3)oc2c1)N1CCC(O)C1 (centres unmarked) [Compound 84] | A (A is <25%) | Tafamidis CSF/plasma Ratio over 24 hrs (po) [1]: A (A is <0.015) |
| O=C(c1ccc2nc(-c3cc(Cl)cc(Cl)c3)oc2c1)N1CCC(F)(F)C1 [Compound 104] | A (A is <25%) | Tafamidis CSF/plasma Ratio over 24 hrs (po) [1]: A (A is <0.015) |
| CC(NC(=O)c1ccc2nc(-c3cc(Cl)cc(Cl)c3)oc2c1)C(F)F (centres unmarked) [Compound 2, 2-(3,5-dichlorophenyl)-N-(1,1-difluoropropan-2-yl)benzo[d]oxazole-6-carboxamide] | A (A is <25%) |  |
| O=C(NC1CCN(CCF)C1)c1ccc2nc(-c3cc(Cl)cc(Cl)c3)oc2c1 (centres unmarked) [Compound 22, 2-(3,5-dichlorophenyl)-N-(1-(2-fluoroethyl)pyrrolidin-3-yl)benzo[d]oxazole-6-carboxamide] | A (A is <25%) |  |
| CC(F)(F)CNC(=O)c1ccc2nc(-c3cc(Cl)cc(Cl)c3)oc2c1 [Compound 1, 2-(3,5-dichlorophenyl)-N-(2,2-difluoropropyl)benzo[d]oxazole-6-carboxamide] | A (A is <25%) |  |
| CC1(O)CC2(CN(C(=O)c3ccc4nc(-c5cc(Cl)cc(Cl)c5)oc4c3)C2)C1 [Compound 110] | A (A is <25%) |  |
| Cc1ncc2n1CC(OC(=O)c1ccc3nc(-c4cc(Cl)cc(Cl)c4)oc3c1)CC2 (centres unmarked) [Compound 56, 3-methyl-5,6,7,8-tetrahydroimidazo [1,5-a] pyridin-6-yl 2-(3,5-dichlorophenyl) benzo[d]oxazole-6-carboxylate] | A (A is <25%) |  |
| O=C(NCC(F)(F)C(F)(F)F)c1ccc2nc(-c3cc(Cl)cc(Cl)c3)oc2c1 [Compound 3, 2-(3,5-dichlorophenyl)-N-(2,2,3,3,3-pentafluoropropyl)benzo[d]oxazole-6-carboxamide] | A (A is <25%) |  |
| O=C(NC1CC2(CC(O)C2)C1)c1ccc2nc(-c3cc(Cl)cc(Cl)c3)oc2c1 (centres unmarked) [Compound 98] | A (A is <25%) |  |
| CN(C)CCN(C)C(=O)c1ccc2nc(-c3cc(Cl)cc(Cl)c3)oc2c1 [Compound 8, 2-(3,5-dichlorophenyl)-N-(2-(dimethylamino)ethyl)-N-methylbenzo[d]oxazole-6-carboxamide] | A (A is <25%) |  |
| O=C(OC1CCN(c2cccnn2)C1)c1ccc2nc(-c3cc(Cl)cc(Cl)c3)oc2c1 (centres unmarked) [Compound 54, 1-(pyridazin-3-yl)pyrrolidin-3-yl 2-(3,5-dichlorophenyl)benzo-[d]oxazole-6-carboxylate] | A (A is <25%) |  |
| O=C(OC1CCN2CCCCC12)c1ccc2nc(-c3cc(Cl)cc(Cl)c3)oc2c1 (centres unmarked) [Compound 55, Octahydroindolizin-1-yl 2-(3,5-dichlorophenyl)benzo[d]oxazole-6-carboxylate] | B (B is ≥25 to <50%) |  |
| O=C(NC1COC1)c1ccc2nc(-c3cc(Cl)cc(Cl)c3)oc2c1 [Compound 16, 2-(3,5-dichlorophenyl)-N-(oxetan-3-yl)benzo[d]oxazole-6-carboxamide] | A (A is <25%) |  |
| O=C(c1ccc2nc(-c3cc(Cl)cc(Cl)c3)oc2c1)N1CCC(O)C(F)(F)C1 (centres unmarked) [Compound 116] | A (A is <25%) |  |
| O=C(c1ccc2nc(-c3cc(Cl)cc(Cl)c3)oc2c1)N1CC2(CCC(O)C2)C1 (centres unmarked) [Compound 107] | A (A is <25%) |  |
| O=C(c1ccc2nc(-c3cc(Cl)cc(Cl)c3)oc2c1)N1CCCC1 [Compound 88] | A (A is <25%) |  |
| O=C(O[C@H]1CCCN2CCC[C@H]12)c1ccc2nc(-c3cc(Cl)cc(Cl)c3)oc2c1 (single isomer, unassigned) [Compound 69, Octahydroindolizin-8-yl 2-(3,5-dichlorophenyl)benzo[d]oxazole-6-carboxylate] | A (A is <25%) |  |
| CC1(OC(=O)c2ccc3nc(-c4cc(Cl)cc(Cl)c4)oc3c2)CCNC1.Cl (centres unmarked) [Compound 117] | A (A is <25%) |  |
| CCN1CCC(C)(OC(=O)c2ccc3nc(-c4cc(Cl)cc(Cl)c4)oc3c2)CC1 [Compound 126] | A (A is <25%) |  |
| O=C(N[C@@H]1CCC[C@@H]1O)c1ccc2nc(-c3cc(Cl)cc(Cl)c3)oc2c1 (relative stereo) [Compound 28, 2-(3,5-dichlorophenyl)-N-((cis)-2-hydroxycyclopentyl)benzo-[d]oxazole-6-carboxamide] | A (A is <25%) |  |
| O=C(O)c1ccc2nc(-c3cc(Cl)cc(Cl)c3)oc2c1 [tafamidis] |  | Kp ([1]; male, Sprague-Dawley, CSF and plasma, oral dose of 2 mg/kg of tafamidis, reference, read-out: CSF to plasma ratio over 24 hrs): ~0.01; Kp at 24 h ([1]; male, Sprague-Dawley, brain and plasma, oral dose of 2 mg/kg of tafamidis, reference): ~0.02; tafamidis level in CSF, of that in plasma [3]: 2%; tafamidis level in vitreous, of that in plasma [3]: 0.5%; tafamidis/TTR stoichiometric ratio in plasma [3]: 2.4; tafamidis/TTR stoichiometric ratio in vitreous and CSF [3]: ≤ 1 |
